Reference: ChEMBL document CHEMBL3272146, “Tetramethoxydibenzoquinolizinium salts. Preparation and antileukemic activity of some positional and structural isomers of coralyne” (1976)
The source made the active and inactive calls. The rule behind the calls is not given here.

Assays:
P388 [1] = experiment: In-vivo antileukemic activity against mouse P388 cells assessed as host survival at 10 mg/kg qd relative to control; type: functional
P388 [2] = experiment: In-vivo antileukemic activity against mouse P388 cells assessed as host survival at 10 mg/kg qd; type: functional, organism-based; set-up: dose 10 mg/kg
P388 [3] = experiment: In-vivo antileukemic activity against mouse P388 cells assessed as host survival at 5 mg/kg qd relative to control; type: functional
P388 [4] = experiment: In-vivo antileukemic activity against mouse P388 cells assessed as host survival at 20 mg/kg qd; type: functional, organism-based; set-up: dose 20 mg/kg
P388 [5] = experiment: In-vivo antileukemic activity against mouse P388 cells assessed as host survival at 20 mg/kg qd relative to control; type: functional
P388 [6] = experiment: In-vivo antileukemic activity against mouse P388 cells assessed as host survival at 40 mg/kg qd relative to control; type: functional
P388 [7] = experiment: In-vivo antileukemic activity against mouse P388 cells assessed as host survival at 5 mg/kg qd; type: functional, organism-based; set-up: dose 5 mg/kg
P388 [8] = experiment: In-vivo antileukemic activity against mouse P388 cells assessed as host survival at 168 mg/kg qd; type: functional, organism-based; set-up: dose 168 mg/kg
P388 [9] = experiment: In-vivo antileukemic activity against mouse P388 cells assessed as host survival at 100 mg/kg qd; type: functional, organism-based; set-up: dose 100 mg/kg
P388 [10] = experiment: In-vivo antileukemic activity against mouse P388 cells assessed as host survival at 80 mg/kg qd relative to control; type: functional
P388 [11] = experiment: In-vivo antileukemic activity against mouse P388 cells assessed as host survival at 50 mg/kg qd relative to control; type: functional
P388 [12] = experiment: In-vivo antileukemic activity against mouse P388 cells assessed as host survival at 120 mg/kg qd; type: functional, organism-based; set-up: dose 120 mg/kg
P388 [13] = experiment: In-vivo antileukemic activity against mouse P388 cells assessed as host survival at 80 mg/kg qd; type: functional, organism-based; set-up: dose 80 mg/kg
P388 [14] = experiment: In-vivo antileukemic activity against mouse P388 cells assessed as host survival at 100 mg/kg qd relative to control; type: functional
P388 [15] = experiment: In-vivo antileukemic activity against mouse P388 cells assessed as host survival at 25 mg/kg qd relative to control; type: functional
P388 [16] = experiment: In-vivo antileukemic activity against mouse P388 cells assessed as host survival at 120 mg/kg qd relative to control; type: functional
P388 [17] = experiment: In-vivo antileukemic activity against mouse P388 cells assessed as host survival at 25 mg/kg qd; type: functional, organism-based; set-up: dose 25 mg/kg
P388 [18] = experiment: In-vivo antileukemic activity against mouse P388 cells assessed as host survival at 50 mg/kg qd; type: functional, organism-based; set-up: dose 50 mg/kg
P388 [19] = experiment: In-vivo antileukemic activity against mouse P388 cells assessed as host survival at 400 mg/kg qd relative to control; type: functional
P388 [20] = experiment: In-vivo antileukemic activity against mouse P388 cells assessed as host survival at 200 mg/kg qd; type: functional, organism-based; set-up: dose 200 mg/kg
P388 [21] = experiment: In-vivo antileukemic activity against mouse P388 cells assessed as host survival at 200 mg/kg qd relative to control; type: functional
P388 [22] = experiment: In-vivo antileukemic activity against mouse P388 cells assessed as host survival at 32 mg/kg qd relative to control; type: functional
P388 [23] = experiment: In-vivo antileukemic activity against mouse P388 cells assessed as host survival at 128 mg/kg qd relative to control; type: functional
P388 [24] = experiment: In-vivo antileukemic activity against mouse P388 cells assessed as host survival at 160 mg/kg qd relative to control; type: functional
P388 [25] = experiment: In-vivo antileukemic activity against mouse P388 cells assessed as host survival at 8 mg/kg qd relative to control; type: functional
P388 [26] = experiment: In-vivo antileukemic activity against mouse P388 cells assessed as host survival at 64 mg/kg qd relative to control; type: functional
P388 [27] = experiment: In-vivo antileukemic activity against mouse P388 cells assessed as host survival at 64 mg/kg qd; type: functional, organism-based; set-up: dose 64 mg/kg
P388 [28] = experiment: In-vivo antileukemic activity against mouse P388 cells assessed as host survival at 75 mg/kg qd relative to control; type: functional
P388 [29] = experiment: In-vivo antileukemic activity against mouse P388 cells assessed as host survival at 40 mg/kg qd; type: functional, organism-based; set-up: dose 40 mg/kg
P388 [30] = experiment: In-vivo antileukemic activity against mouse P388 cells assessed as host survival at 160 mg/kg qd; type: functional, organism-based; set-up: dose 160 mg/kg

Question: Which T/C (P388 [1]) does the source give for `CC(=O)OS(=O)(=O)[O-].COc1cc2cc[n+]3c(C)c4ccc(OC)c(OC)c4cc3c2cc1OC` here?
Answer: 136

Question: And the Activity (P388 [2])?
Answer: Active

Question: What about the T/C (P388 [3]) of the same compound?
Answer: 127

Question: And the Activity (P388 [4])?
Answer: Active

Question: And the T/C (P388 [5])?
Answer: 171

Question: What about the T/C (P388 [6]) of the same compound?
Answer: 177

Question: What about the Activity (P388 [7]) of the same compound?
Answer: Active

Question: And the Activity (P388 [8])?
Answer: inactive

Question: How did the Activity (P388 [9]) turn out when `CC(=O)OS(=O)(=O)[O-].COc1cc2c[n+](C)c3c4ccc(OC)c(OC)c4ccc3c2cc1OC` was run?
Answer: Active

Question: And the T/C (P388 [1])?
Answer: 149

Question: What about the Activity (P388 [2]) of the same compound?
Answer: Active

Question: What about the T/C (P388 [10]) of the same compound?
Answer: 170

Question: What about the T/C (P388 [11]) of the same compound?
Answer: 174

Question: What about the Activity (P388 [12]) of the same compound?
Answer: Active

Question: And the Activity (P388 [4])?
Answer: Active

Question: And the Activity (P388 [13])?
Answer: Active

Question: What about the T/C (P388 [5]) of the same compound?
Answer: 154

Question: What about the T/C (P388 [6]) of the same compound?
Answer: 153

Question: And the T/C (P388 [14])?
Answer: 209

Question: What about the T/C (P388 [15]) of the same compound?
Answer: 164

Question: What about the T/C (P388 [16]) of the same compound?
Answer: 179

Question: What about the Activity (P388 [17]) of the same compound?
Answer: Active

Question: And the Activity (P388 [18])?
Answer: Active

Question: With `COc1cc2cc3c4cc(OC)c(OC)cc4cc(C)[n+]3cc2cc1OC.[Cl-]` as the compound, how does the Activity (P388 [9]) read?
Answer: Active

Question: What about the T/C (P388 [19]) of the same compound?
Answer: 131

Question: What about the T/C (P388 [11]) of the same compound?
Answer: 134

Question: What about the Activity (P388 [20]) of the same compound?
Answer: Active

Question: What about the T/C (P388 [21]) of the same compound?
Answer: 139

Question: What about the T/C (P388 [14]) of the same compound?
Answer: 134

Question: And the T/C (P388 [15])?
Answer: 139

Question: What about the Activity (P388 [17]) of the same compound?
Answer: Active

Question: And the Activity (P388 [18])?
Answer: Active

Question: Which Activity (P388 [9]) does the source give for `CC(=O)OS(=O)(=O)[O-].COc1cc2cc3c4cc(OC)c(OC)cc4cc[n+]3c(C)c2cc1OC` here?
Answer: Active

Question: What about the T/C (P388 [1]) of the same compound?
Answer: 159

Question: What about the T/C (P388 [22]) of the same compound?
Answer: 175

Question: And the T/C (P388 [23])?
Answer: 167

Question: What about the T/C (P388 [10]) of the same compound?
Answer: 175

Question: And the T/C (P388 [11])?
Answer: 180

Question: What about the T/C (P388 [3]) of the same compound?
Answer: 157

Question: What about the T/C (P388 [5]) of the same compound?
Answer: 173

Question: What about the T/C (P388 [24]) of the same compound?
Answer: 170

Question: And the T/C (P388 [25])?
Answer: 150

Question: And the T/C (P388 [6])?
Answer: 173

Question: And the T/C (P388 [14])?
Answer: 176

Question: And the T/C (P388 [26])?
Answer: 182

Question: What about the Activity (P388 [18]) of the same compound?
Answer: Active

Question: What about the Activity (P388 [7]) of the same compound?
Answer: Active

Question: What about the Activity (P388 [27]) of the same compound?
Answer: Active

Question: And the T/C (P388 [28])?
Answer: 175

Question: `CC(=O)OS(=O)(=O)[O-].COc1cc2cc3cc4cc(OC)c(OC)cc4c(C)[n+]3cc2cc1OC` was tested. Which T/C (P388 [1]) did it give?
Answer: 145

Question: What about the Activity (P388 [2]) of the same compound?
Answer: Active

Question: What about the T/C (P388 [10]) of the same compound?
Answer: 180

Question: And the T/C (P388 [3])?
Answer: 140

Question: And the Activity (P388 [12])?
Answer: Active

Question: What about the Activity (P388 [4]) of the same compound?
Answer: Active

Question: And the Activity (P388 [13])?
Answer: Active

Question: What about the T/C (P388 [5]) of the same compound?
Answer: 180

Question: And the Activity (P388 [29])?
Answer: Active

Question: What about the T/C (P388 [24]) of the same compound?
Answer: 200

Question: What about the T/C (P388 [6]) of the same compound?
Answer: 150

Question: What about the Activity (P388 [30]) of the same compound?
Answer: Active

Question: And the T/C (P388 [16])?
Answer: 150

Question: What about the Activity (P388 [7]) of the same compound?
Answer: Active
